Where two headings read alike, the source gives them in different places.
Columns and labels:
[1] = test system: Pgp- and ABCG2-negative NIH 3T3 and MDCK cells; experiment: Calcein and mitoxantrone accumulation in transporter negative cells; assay type: cell-based, mouse / canine; settings: NIH 3T3 (calcein) and MDCK (mitoxantrone), Supplementary Fig. S1, 50 µM
Protocol: Supplementary Fig. S1: Effect of retinoid derivatives on the calcein (a) and
mitoxantrone (c) accumulation and viability (b, d) of Pgp- and ABCG2-negative NIH
3T3 and MDCK cells. Cells were pre-treated with retinoids added at 50 µM concentration
Cell viability was determined on the basis of propidium iodide exclusion.
(§1) (1 picture or pasted object on this page, not shown here)

[2] = molecular target: T1, ABCG2 (Homo sapiens, UniProt Q9UNQ0); experiment: Vanadate-sensitive ATPase activity of ABCG2 in Sf9 membrane preparations; assay type: biochemical; settings: cholesterol-loaded Sf9 membranes, mean ± SEM, n=3
T1 sequence (Q9UNQ0 1-655): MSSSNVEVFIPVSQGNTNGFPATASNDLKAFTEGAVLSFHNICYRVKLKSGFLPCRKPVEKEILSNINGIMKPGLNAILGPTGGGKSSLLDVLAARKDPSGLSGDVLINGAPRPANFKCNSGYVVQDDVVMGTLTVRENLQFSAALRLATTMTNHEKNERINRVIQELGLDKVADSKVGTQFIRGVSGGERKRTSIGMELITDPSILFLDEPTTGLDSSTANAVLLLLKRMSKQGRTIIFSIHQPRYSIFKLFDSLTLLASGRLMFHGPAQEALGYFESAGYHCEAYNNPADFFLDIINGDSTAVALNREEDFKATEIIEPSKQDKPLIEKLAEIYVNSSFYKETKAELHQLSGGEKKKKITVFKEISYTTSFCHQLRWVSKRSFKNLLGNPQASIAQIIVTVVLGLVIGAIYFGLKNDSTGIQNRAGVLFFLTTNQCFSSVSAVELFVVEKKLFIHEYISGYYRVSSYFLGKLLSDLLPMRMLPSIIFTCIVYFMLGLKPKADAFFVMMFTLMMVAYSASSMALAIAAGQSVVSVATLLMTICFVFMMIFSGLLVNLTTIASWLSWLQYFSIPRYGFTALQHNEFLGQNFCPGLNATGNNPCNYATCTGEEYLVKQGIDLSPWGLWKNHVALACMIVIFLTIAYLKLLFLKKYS
Protocol: For ATPase activity measurements we used membrane samples derived from Sf9 (Spodoptera frugiperda) insect ovarian cells expressing human Pgp or ABCG2. cDNAs of the transporters were cloned into recombinant baculovirus transfer vectors, the Sf9 insect ovarian cells were cultured, and infected with the baculoviruses as described in ref. [52]. Sf9 cells overexpressing human Pgp and ABCG2 were harvested and cell membranes were isolated. The protein concentration of the membrane samples were determined by the Lowry method. The ABCG2 expressing Sf9 membrane samples were loaded with cholesterol by cholesterol-methyl-beta-cyclodextrine complex in order to obtain high specific ATPase activity of the transporter. Membrane samples were stored at −80 °C. The transporter expression of the membrane samples (5 μg membrane protein/slot) was routinely checked by immunoblot using the G-1 mAb (for Pgp) or BXP-21 mAb (for ABCG2) and a goat anti-mouse HRP-conjugated IgG secondary antibody. Both primary and secondary antibodies were from Santa Cruz Biotechnology Inc. (CA, USA) and applied at 1:5,000 dilution.
The vanadate-sensitive ATPase activity of Pgp and ABCG2 was determined by a colorimetric assay described in refs [32],[55]. Specific ATPase activity of the transporters was calculated from the amount of released inorganic phosphate. […]. The absorbance of the samples was measured at 700 nm using a BioTek Synergy HT plate reader (BioTek Instruments, Winooski, USA).
The half-inhibitory doses (IC50) of retinoids were determined by fitting the dose-response relationships with a four parameter sigmoidal curve, where Amax and Amin are the ATPase activities measured at zero and at infinitely high inhibitor concentrations, respectively, n is the Hill coefficient and x is the concentration of the inhibitor:
Upon studying the kinetics of inhibition of the substrate-stimulated ATPase activity by retinoids data points were fitted with a modified form of the Michaelis-Menten equation[56] which includes the Hill coefficient, n: […]
v0 is the basal ATPase activity measured in the absence of the stimulatory substrate, while vmax is the maximal extent of ATPase stimulation and KM is the Michaelis constant (i.e. the substrate concentration at which the reaction rate is half of vmax).

[3] = test system: Pgp-positive and Pgp-negative NIH 3T3 cells; experiment: AlamarBlue in vitro cytotoxicity assay; assay type: cell-based, mouse; settings: 72 h, NIH 3T3 and NIH 3T3 MDR1, Supplementary Fig. S3
Protocol: Supplementary Fig. S3: Cytotoxic effect of retinyl-acetate on Pgp-positive and Pgp-negative NIH 3T3 cells. The AlamarBlue (Serotec, UK) based in vitro cytotoxicity assay was performed as previously described 1. Cells were seeded in 96-well plates at a cell density of 5 × 10^3 cells/well. 24 hours later retinyl-acetate was added at different concentrations and the plates were further incubated for 72 h at 37 °C. The cell viability was determined measuring the 530/590 nm fluorescence intensity of the dye in an automated microplate reader (BioTec Synergy HT, US). The AlamarBlue fluorescence intensity of the samples was normalized to the fluorescence of the retinyl-acetate untreated samples, and plotted as a function of retinyl-acetate concentration. The data points are means of eight parallel samples (±SD).
as §1

[4] = molecular target: T2, Pgp (Homo sapiens, UniProt P08183); settings: Sf9 membranes, Fig. 2c
T2 sequence (P08183 whole entry): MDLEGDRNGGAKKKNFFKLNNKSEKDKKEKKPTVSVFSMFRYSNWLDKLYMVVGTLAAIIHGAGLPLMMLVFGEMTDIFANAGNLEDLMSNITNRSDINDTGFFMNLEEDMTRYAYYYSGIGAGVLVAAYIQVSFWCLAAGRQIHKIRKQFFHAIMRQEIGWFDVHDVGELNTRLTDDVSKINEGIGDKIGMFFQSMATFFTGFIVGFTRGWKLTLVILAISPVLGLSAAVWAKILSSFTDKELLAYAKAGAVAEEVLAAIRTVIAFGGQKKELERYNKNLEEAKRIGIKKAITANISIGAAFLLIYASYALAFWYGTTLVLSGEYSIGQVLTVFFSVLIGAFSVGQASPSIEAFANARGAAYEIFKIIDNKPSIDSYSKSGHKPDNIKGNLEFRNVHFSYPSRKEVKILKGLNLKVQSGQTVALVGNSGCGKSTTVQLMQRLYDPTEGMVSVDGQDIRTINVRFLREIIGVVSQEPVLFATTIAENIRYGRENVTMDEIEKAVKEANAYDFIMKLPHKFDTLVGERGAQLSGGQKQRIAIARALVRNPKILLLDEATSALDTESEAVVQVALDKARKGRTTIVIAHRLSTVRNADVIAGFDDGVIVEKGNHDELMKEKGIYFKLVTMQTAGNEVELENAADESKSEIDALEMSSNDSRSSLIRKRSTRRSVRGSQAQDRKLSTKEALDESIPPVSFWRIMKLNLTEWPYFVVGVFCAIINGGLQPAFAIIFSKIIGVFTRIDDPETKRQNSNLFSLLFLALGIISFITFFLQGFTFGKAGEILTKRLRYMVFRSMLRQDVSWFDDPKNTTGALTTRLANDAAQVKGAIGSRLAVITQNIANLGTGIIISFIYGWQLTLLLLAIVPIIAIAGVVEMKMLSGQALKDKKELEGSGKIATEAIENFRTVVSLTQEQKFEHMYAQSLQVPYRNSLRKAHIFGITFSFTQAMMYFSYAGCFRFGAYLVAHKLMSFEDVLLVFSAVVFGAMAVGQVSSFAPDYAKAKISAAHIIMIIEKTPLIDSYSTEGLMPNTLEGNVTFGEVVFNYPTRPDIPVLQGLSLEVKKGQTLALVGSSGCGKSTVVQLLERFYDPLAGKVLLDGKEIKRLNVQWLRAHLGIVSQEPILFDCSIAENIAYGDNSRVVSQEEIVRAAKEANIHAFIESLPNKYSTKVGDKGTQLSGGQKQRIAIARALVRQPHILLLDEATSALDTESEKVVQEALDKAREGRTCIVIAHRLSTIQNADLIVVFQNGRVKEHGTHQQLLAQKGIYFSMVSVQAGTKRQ
Protocol: (§2) For ATPase activity measurements we used membrane samples derived from Sf9 (Spodoptera frugiperda) insect ovarian cells expressing human Pgp or ABCG2. cDNAs of the transporters were cloned into recombinant baculovirus transfer vectors, the Sf9 insect ovarian cells were cultured, and infected with the baculoviruses as described in ref. [52]. Sf9 cells overexpressing human Pgp and ABCG2 were harvested and cell membranes were isolated. The protein concentration of the membrane samples were determined by the Lowry method[53]. The ABCG2 expressing Sf9 membrane samples were loaded with cholesterol by cholesterol-methyl-beta-cyclodextrine complex in order to obtain high specific ATPase activity of the transporter[54]. Membrane samples were stored at −80 °C. The transporter expression of the membrane samples (5 μg membrane protein/slot) was routinely checked by immunoblot using the G-1 mAb (for Pgp) or BXP-21 mAb (for ABCG2) and a goat anti-mouse HRP-conjugated IgG secondary antibody. Both primary and secondary antibodies were from Santa Cruz Biotechnology Inc. (CA, USA) and applied at 1:5,000 dilution.
(§3) The vanadate-sensitive ATPase activity of Pgp and ABCG2 was determined by a colorimetric assay described in refs [32],[55]. Specific ATPase activity of the transporters was calculated from the amount of released inorganic phosphate. […] The absorbance of the samples was measured at 700 nm using a BioTek Synergy HT plate reader (BioTek Instruments, Winooski, USA).

[5] = molecular target: P-gp (human Pgp), basal vanadate-sensitive ATPase activity (Homo sapiens, UniProt P08183); experiment: in vitro; settings: membranes of Sf9 insect cells expressing human Pgp, IC50 values, 10 min pre-incubation 37 °C, 3 mM ATP/Mg2+ 25 min, mean ± SEM, n=3
Chain of P-gp (human Pgp), basal vanadate-sensitive ATPase activity (P08183 whole entry): as above
Protocol: as §2, §3

[6] = ref PubChem Compound Database (CID); cited from earlier work
[7] = molecular target: T2, Pgp; experiment: biochemical; settings: IC50 values, Pgp stimulated (verapamil-stimulated) ATPase activity, 40 μM verapamil; Sf9 membranes; mean ± SEM, n=3
Protocol: as §2, §3

[8] = test system: NIH 3T3 / NIH 3T3 MDR1 and MDCK / MDCK ABCG2 cells; experiment: DPH steady-state fluorescence anisotropy (membrane fluidity); settings: retinoids 100 μM; for Effect on DPH fluorescence anisotropy: cyclosporin 10 μM, Ko143 2 μM, 10 min 37 °C, all tested cell lines
[9] = molecular target: T2, Pgp; experiment: Calcein accumulation test (Pgp transport activity) in NIH 3T3 MDR1 cells; settings: 20 min pre-treatment 37 °C, 500 nM calcein-AM 20 min
Protocol: (§4) Calcein-AM was applied to measure the transport activity of Pgp[51], while ABCG2 mediated transport was measured in mitoxantrone accumulation tests[18]. Cells were harvested and washed three times in PBS containing 7 mM glucose (gl-PBS). […] Dead cells were excluded from the analysis on the basis of propidium iodide (PI) staining.
(§5) Flow cytometric analysis was carried out on a Becton Dickinson FACSAria III Cell Sorter (Becton Dickinson, Mountain View, CA, USA). Calcein was excited by the 488 nm line of a solid state laser and the emitted light was detected using a 502 nm dichroic mirror and a 530/30 nm band-pass filter. […] AlexaFluor647 and mitoxantrone signals were detected with a 633 nm excitation laser and a 660/20 nm band-pass filter.

[10] = molecular target: T1, ABCG2; experiment: Mitoxantrone accumulation test (ABCG2 transport activity) in MDCK ABCG2 cells; settings: 20 min pre-treatment 37 °C, 5 μM mitoxantrone 40 min
Protocol: as §4, §5

[11] = test system: NIH 3T3 / NIH 3T3 MDR1 and MDCK / MDCK ABCG2 cells; experiment: TMA-DPH steady-state fluorescence anisotropy (membrane fluidity); settings: retinoids 100 μM, cyclosporin 10 μM, Ko143 2 μM; 10 min 37 °C

## CC(=O)OC/C=C(C)/C=C/C=C(C)/C=C/C1=C(C)CCCC1(C)C [Retinyl-acetate]
[1]
  Effect on substrate accumulation of transporter negative cells: did not have any effect
[2]; 10 μM quercetin, read-out: IC50 values, ABCG2 stimulated (quercetin-stimulated) ATPase activity
  IC50: 70.4 ± 7.3 µM
[2]; read-out: IC50 values, ABCG2 basal ATPase activity
  IC50: 18.9 ± 4 µM
[3]
  Cytotoxicity profile in Pgp+ versus Pgp− cells: identical cytotoxicity profile
[4]
  Effect on the basal ATPase activity of Pgp: slightly stimulated
[5]
  IC50 at 25 min: 36.8 ± 4 µM
[6]
  LogP (octanol-water partition coefficient, LogPow): 6.3
[7]
  IC50: 19.1 ± 5 µM
[8]
  Effect on DPH fluorescence anisotropy: increased the DPH fluorescence anisotropy values significantly
[8]; Pgp+ vs Pgp− NIH 3T3, ABCG2 expressing vs non-expressing MDCK
  Effect on DPH anisotropy in transporter expressing compared to non-expressing cells: significantly lower effect
[9]
  Effect on calcein accumulation of Pgp expressing cells (Pgp transport activity): increased the cellular accumulation of the fluorescent transporter substrates in a concentration dependent manner
[10]
  Effect on mitoxantrone accumulation of ABCG2 expressing cells (ABCG2 transport activity): increased the cellular accumulation of the fluorescent transporter substrates in a concentration dependent manner

## COc1ccc2c3c([nH]c2c1)[C@H](CC(C)C)N1C(=O)[C@H](CCC(=O)OC(C)(C)C)NC(=O)[C@@H]1C3 [Ko143]
[6]
  LogP (octanol-water partition coefficient, LogPow): 3.5
[8]
  Effect on DPH fluorescence anisotropy: do not affect the overall membrane fluidity
[11]
  Effect on TMA-DPH fluorescence anisotropy: do not affect the overall membrane fluidity
